Measured values reported in paper PMC7930289 (Heliyon, 2021).
pKi: −log10 of the molar value.

Columns and labels:
[1] = biological target: hPMCA4 overexpressed in HEK293T cells (Homo sapiens, UniProt P23634); experiment: Dynamics of cytoplasmic Ca2+ in HEK293T cells overexpressing hPMCA4; format: cell-based; details: 50 μM, 30 min; for AUC of [Ca2+]CYT after TG addition: 2 μM TG
[2] = biological target: Na+/K+-ATPase; details: read-out: Ki (Na+/K+-ATPase activity); cited from earlier work

hPMCA4 overexpressed in HEK293T cells, sequence (P23634 1-1205 isoform P23634-6): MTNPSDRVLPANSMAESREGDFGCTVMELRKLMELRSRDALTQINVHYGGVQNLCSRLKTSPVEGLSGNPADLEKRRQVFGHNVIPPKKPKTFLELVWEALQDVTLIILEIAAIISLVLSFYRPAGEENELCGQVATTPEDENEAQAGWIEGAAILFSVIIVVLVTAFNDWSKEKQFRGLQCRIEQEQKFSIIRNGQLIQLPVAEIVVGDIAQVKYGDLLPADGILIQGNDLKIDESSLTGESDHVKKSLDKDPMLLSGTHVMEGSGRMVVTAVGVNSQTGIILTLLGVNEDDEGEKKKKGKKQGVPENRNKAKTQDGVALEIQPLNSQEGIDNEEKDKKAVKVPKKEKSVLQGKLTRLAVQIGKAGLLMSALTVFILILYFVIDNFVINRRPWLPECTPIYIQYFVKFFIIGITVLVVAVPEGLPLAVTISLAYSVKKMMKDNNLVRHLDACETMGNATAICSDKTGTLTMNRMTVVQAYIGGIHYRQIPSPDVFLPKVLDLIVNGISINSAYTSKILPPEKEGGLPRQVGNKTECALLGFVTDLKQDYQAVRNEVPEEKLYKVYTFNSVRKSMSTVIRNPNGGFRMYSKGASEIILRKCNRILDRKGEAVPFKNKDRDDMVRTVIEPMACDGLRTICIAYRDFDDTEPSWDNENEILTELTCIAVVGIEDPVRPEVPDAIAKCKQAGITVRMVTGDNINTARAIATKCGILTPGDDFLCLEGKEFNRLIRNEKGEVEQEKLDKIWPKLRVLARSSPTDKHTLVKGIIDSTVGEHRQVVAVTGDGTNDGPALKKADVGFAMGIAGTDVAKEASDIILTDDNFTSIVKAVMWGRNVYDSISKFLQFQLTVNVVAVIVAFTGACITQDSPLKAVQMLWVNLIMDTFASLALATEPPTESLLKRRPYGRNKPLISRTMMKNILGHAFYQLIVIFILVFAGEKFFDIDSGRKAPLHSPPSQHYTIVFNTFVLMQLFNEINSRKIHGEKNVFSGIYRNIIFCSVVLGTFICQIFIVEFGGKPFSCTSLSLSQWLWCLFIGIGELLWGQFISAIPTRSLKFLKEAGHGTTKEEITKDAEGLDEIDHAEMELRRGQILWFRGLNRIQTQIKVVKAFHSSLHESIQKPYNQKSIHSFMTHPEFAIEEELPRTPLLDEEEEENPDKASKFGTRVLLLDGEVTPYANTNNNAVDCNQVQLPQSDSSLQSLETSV

O=C(O[C@@H]1Cc2c(O)cc(O)cc2O[C@@H]1c1cc(O)c(O)c(O)c1)c1cc(O)c(O)c(O)c1 [EGCG, (−)-cis-3,3′,4′,5,5′,7-Hexahydroxy-flavane-3-gallate]
hPMCA4 activity in HEK293T cells (Eq. 6) [1]: significantly decreased
AUC of [Ca2+]CYT after TG addition ([1]; HEK293T-hPMCA4 cells): induced an increase in the AUC value
AUC of [Ca2+]CYT after TG addition ([1]; HEK293T-mock cells): no significant effect
pKi [2]: 6.00
